Series [1] deals with sciatic nerve transection mouse model. The series can be described thus: Sciatic nerve transection muscle atrophy model. In kind it is in vivo, C57BL/6 male mice. The settings on record: versus control; for Grip strength: 5.0 mg/kg subcutaneous 6 times a week for 9 weeks; for Muscle mass (DXA assay): 5.0 mg/kg subcutaneous 6 times a week, fourth week. How it is done: The effects of the test substances on muscle diseases accompanied by muscle loss were evaluated using a sciatic nerve transection mouse model.
In the sciatic nerve transection mouse model, muscle atrophy was induced as follows. The thigh muscles of C57BL/6 male mice were transversely incised to expose sciatic nerves, and then the sciatic nerves were transected to weaken the nerves in the muscle tissue and induce muscle atrophy. The incised site was sutured, and a recovery period of one week was provided after the surgery.
To each mouse after the recovery period, the test substance (Control-PBS; and fusion protein) assigned to each group was subcutaneously injected at a concentration of 5.0 mg/kg 6 times a week for 9 weeks (Control: n=8, No. 13: n=9, No. 14: n=9, No. 15: n=8). The effects of improving muscle loss were measured with an X-ray body composition analyzer (DXA assay) in the fourth week of test substance administration, and the effects of improving muscle function was compared by measuring grip strength.

The subject of a further series is plasma proteins. The series can be described thus: Plasma protein binding test (PPB). The settings on record: mouse plasma, 5 uM, 37° C., 4 hours, 100 kD filter, western blot. In kind it is in vitro ADME, mice. The procedure: Such an increase in half-life was further confirmed by measuring plasma protein binding rates (Plasma protein binding test, PPB). […] Each of the plasma of the mice and the fusion protein (SEQ ID NO: 13), and or His tag-wild-type substance (1-81) (SEQ ID NO: 5) was incubated at a concentration of 5 uM at 37° C. for 4 hours. After that, they were centrifuged with a 100 kD filter to obtain fractions of the substance bound to the plasma proteins or fractions of the unbound substance. Each of the obtained fractions was evaluated by western blot.

The test system of series [2] is follicular cells (dermal papilla cells). Put plainly: Follicular cell proliferation by MTT assay. The class given is cell-based. The note with it: 100 nM, 24 hours; compared with Control (PBS). How it is done:
Whether the test substances of the present invention has effects on preventing hair loss or promoting hair growth was evaluated as follows. Specifically, it was observed whether they have efficacy of improving loss of follicular cells in scalp tissue which is a cause of hair loss, or hair growth due to an increase in hair follicles, by using dermal papilla cells and evaluating cell proliferation of follicular cells.
The follicular cells were treated with each test substance 100 nM (control: PBS) for 24 hours, and the degree of cell proliferation was evaluated by MTT assay.
A general note: Formazan colour is commonly taken as a measure of viable cells.

The test system of a further series is MDA-MB-231 cell line. Put plainly: Reactive oxygen generation (DCF-FA) in breast cancer cells. In kind it is cell-based. The settings on record: 1 μM, 24 hours; compared with Control and SEQ ID NO: 5. How it is done:
In addition, in order to examine generation of reactive oxygen that plays an important role in cancer cell death, each test substance was treated to the MDA-MB-231 cell line at a concentration of 1 μM (Control: PBS) for 24 hours. Then, the cells were stained with DCF-FA and their fluorescence values were observed and compared at 485/535 nm.

Series [3] is described as follows: Half-life in mice, NIR dye-conjugated substance, plasma fluorescence.
Procedure: For evaluation, ten-week-old C57BL/6 mice were used, and the mice were reared in a specialized animal facility which provided a normal diet and a 12/12 hour night/day cycle and then used for experimentation.
The synthetic peptide (SEQ ID NO: 8) and fusion protein (SEQ ID NO: 13) were each injected into the mice at a concentration of 2.5 mg/kg, and blood was collected at 0, 0.5, 2, 4, 24 hours after injection. The collected blood was centrifuged and the obtained plasma was analyzed. At this time, in order to perform effective quantification of the substances, each substance was conjugated with Dylight 680 Near-Infrared dye (NIR) in advance prior to injection, and the finally collected blood samples were examined by observing fluorescent signals with a SpectraMax i3 microplate reader device.
The test system of a further series is cAMP (cyclic AMP). Put plainly: cAMP level (hTRF) in undifferentiated 3T3-L1 cells. The class given is cell-based, mouse. The settings on record: undifferentiated 3T3-L1, 100 nM with 0.5 mM IBMX, 30 minutes; compared with Control and SEQ ID NO: 5. How it is done: (§1) To observe the functionality of the fusion proteins related to lipid metabolism, the 3T3-L1 mouse pre-adipocyte cell line was used as the cell line itself (undifferentiated) or by differentiating into adipocytes. Differentiation into the adipocytes was performed by inducing primary differentiation for the 3T3-L1 cells in a medium containing DMEM, 10% FBS, 10 μg/ml insulin, 0.5 mM IBMX (3-Isobutyl-1-methylxanthine), and 1 μM dexamethasone for 2 days, and inducing secondary differentiation with a medium containing DMEM, 10% FBS, and 10 μg/ml insulin for the remaining 4 days. The adipocytes in which differentiation was finally completed were treated with the test substances at a concentration of 100 nM for 30 hours (Control: PBS) and then used for each test.
Next, changes in cAMP (cyclic AMP), a signaling mediator contributing to lipolysis and energy metabolism were evaluated in the undifferentiated adipocytes. The undifferentiated cells were treated with the test substances at a concentration of 100 nM (Control: PBS) with 0.5 mM IBMX for 30 minutes. Thereafter, the level of cAMP was evaluated by the hTRF (Homogeneous Time Resolved Fluorescence) method (using CAMP Gs dynamic kit from Cisbio). As a result of the measurement, it was confirmed that the level of cAMP was higher in the groups treated with the fusion proteins (SEQ ID NOs: 1, 2, 3, 7, 13, 14, 15) and shortened sequences (sequences 9, 10, 11) compared with the Control and His tag-wild-type substance (1-81) (SEQ ID NO: 5) (FIG. 7).
In general terms: Cyclic AMP is a second messenger, typically raised through Gs and lowered through Gi signalling.

The next series concerns 3T3-L1 adipocytes. Put plainly: Lipid droplet analysis (BODIPY 493/503, confocal) in 3T3-L1 adipocytes. The settings on record: differentiated 3T3-L1 adipocytes, 100 nM, 30 hours. The class given is cell-based, mouse. How it is done: as §1
In addition, lipid droplets of adipocytes were stained with BODIPY 493/503 dye sample, and then confocal image scanning was performed to analyze the size and diameter of the lipid droplets.

Series [4] concerns UCP-1 (uncoupling protein 1). Put plainly: UCP-1 expression (RT-PCR) in differentiated 3T3-L1 adipocytes. The class given is cell-based, mouse. The settings on record: 100 nM, 30 hours. The procedure:
as §1
UCP-1 (uncoupling protein 1) is a representative biomarker related to thermogenesis, indicating browning and energy metabolism activation of adipocytes. In order to observe changes in expression of UCP-1 mRNA and protein by treatment of the fusion proteins, mRNA and protein were isolated from the cells treated with each test substance and RT-PCR and western blot were performed.

The subject of series [5] is Akt and S6 (phosphorylation, p-Akt/p-S6) in C2C12 mouse skeletal muscle cell line. The series can be described thus: Akt and S6 phosphorylation (western blot) in C2C12 muscle cells. In kind it is cell-based. The settings on record: 2 hours. How it is done:
In order to evaluate functions related to muscle loss diseases, each test substance was treated to the undifferentiated C2C12 mouse skeletal muscle cell line (mouse myoblast cell line) or the cell line in which differentiation into myotubes was completed. Differentiation of the cell line into myotubes was performed by conducting addition of 2% horse serum to culture medium and replacement with new medium every two days for a total of 4 days.
To the undifferentiated or differentiated cell lines, the test substances, fusion proteins (SEQ ID NOs: 1, 2, 3, 7, 14 and 15) were treated at a concentration of 100 nM (Control: PBS treated group) for 2 hours. Thereafter, the cells were immediately washed once and the cells were lysed with RIPA buffer (Radioimmunoprecipitation assay buffer). The activity of Akt and S6 (phosphorylation, p-Akt/p-S6) was observed by western blot. Akt phosphorylation is a well-known marker of activation of cell signaling pathways, and is an indicator of beneficial effects on muscle cells such as promotion of glucose metabolism and promotion of muscle biosynthesis. Similarly, S6 phosphorylation is a well-known marker of mTOR activity, and the activity of mTOR is an indicator showing muscle biosynthesis and various cell signaling pathways.
(In general: Immunoblotting shows a protein as a band on a membrane.)

The test system of series [6] is MDA-MB-231 triple-negative breast cancer cell line. The series can be described thus: MTT cell viability in breast cancer cells. In kind it is cell-based. The note with it: 1 μM, 48 hours; compared with Control (PBS), SEQ ID NO: 4 and SEQ ID NO: 5. The procedure: Next, the test substances, the fusion proteins (SEQ ID NO: 1, 2, 3, 7, 14, 15) and shortened sequences (SEQ ID NOs: 9, 10, 11, 12) were treated to MDA-MB-231 triple-negative breast cancer cell line at a concentration of 1 μM (Control: PBS) for 48 hours. Thereafter, the cells were washed with PBS once, and the cells were suspended in serum-free buffer. The MTT (3-[4,5-dimethylthiazol-2-yl]-2,5-diphenyltetrazolium bromide) substance was added thereto at 0.5 mg/ml and incubated at 37° C. for 2 hours. Then, they were washed with PBS once, and the cells were lysed with DMSO for 15 minutes. The solution was transferred to a new plate and the absorbance was measured at 590 nm using a microplate reader.

The subject of series [7] is diet-induced obesity-induced impaired glucose tolerance mice. Put plainly: Diet-induced obesity-induced impaired glucose tolerance model (glucose tolerance test). The class given is in vivo, C57BL/6N mice. The settings on record: 5.0 mg/kg 1 hour before intraperitoneal 20% glucose, after 8 hours fasting. How it is done: In order to secure an impaired glucose tolerance model, conditions causing glucose metabolic disorders in mice by diet-induced obesity were designed. As an animal model, 5-week-old male C57BL/6N mice were obtained and after undergoing an acclimation period by providing a normal diet for 1 week, they were used, and the housing conditions were maintained at 18~24° C., 50~60% humidity, and ad libitum feeding with free access to feed and water was carried out during both the acclimation period and experimental period.
In order to induce impaired glucose tolerance to the mice which had undergone the acclimation period of 1 week, a high-fat diet was supplied to induce obesity. The high-fat diet was provided by preparing as Table 10 below.
The obesity-induced mice were divided into a control group (negative control group; n=14) and an experimental group (fusion protein SEQ ID NOs: 14, 15; No. 14: n=9, No. 15: n=9) and subjected to fasting for 8 hours. Thereafter, PBS to the control, and the fusion protein to the experimental group were administered at a concentration of 5.0 mg/kg, and after 1 hours, a 20% glucose solution was intraperitoneally injected. Blood was collected at each time point and analyzed using a glucometer.

[8] abbreviates: Table 6, C2C12, 100 nM, differentiation state not given.

Turning to “SEQ ID NO: 13: Recombinant protein: Wild-type substance (1-81)-Shortened linker-Fc fusion”, in series [1], the Grip strength entry is listed as “higher performance” and the “Muscle mass (DXA assay)” value was “significantly increased”. For the same substance, the “Binding rate with the plasma proteins” value in the series on plasma proteins is 74%. The “Cell viability (MTT, cell proliferation)” value in series [2] is given as “significantly increased”. In the series with MDA-MB-231 cell line, the Reactive oxygen generation entry is recorded as “generated higher”. Further, the “Half-life increase of fusion protein versus synthetic peptide (SEQ ID NO: 8)” value in [3] (2.5 mg/kg) is “approximately 11.8 times”. In addition, in series [3] (injected at 2.5 mg/kg, Dylight 680 NIR-conjugated, plasma at 0, 0.5, 2, 4, 24 hours), the Half-life turned out to be 18.9 h. Further, in the series with cAMP (cyclic AMP), the “Level of cAMP” value was “higher”. Further, in the series with 3T3-L1 adipocytes, the Lipid droplet size entry is “reduced at a significant level”, the “Maximum lipid droplet diameter per cell” value was “reduced at a significant level” and the “Total lipid droplet area” value is “reduced at a significant level”. For the same substance, the “mRNA level of UCP-1” value in [4] was “significantly increased”.
On to “SEQ ID NO: 15: Recombinant protein: Shortened substance (1-47)-Shortened linker-Fc fusion”, for which, in [1], the Grip strength entry is recorded as “higher performance” and the “Muscle mass (DXA assay)” value is listed as “significantly increased”. Besides, in series [2], the “Cell viability (MTT, cell proliferation)” value was “significantly increased”. For the same substance, in series [5] (setting [8]), the “Activity (% increase compared to control) Akt” value is reported as 548% and the “Activity (% increase compared to control) S6” value is on record as 232%. For the same substance, the “Activity of Akt and S6 compared with control and His tag-wild-type substance (SEQ ID NO: 5)” value in series [5] (differentiated cell line, 100 nM) was “significantly higher activity”. In addition, the Reactive oxygen generation result with MDA-MB-231 cell line is on record as “generated higher”. Besides, in series [6], the “Cell viability (MTT)” value is reported as “significantly low”. In addition, the “Level of cAMP” value in the series with cAMP (cyclic AMP) is listed as “higher”. In addition, the “Blood glucose variation over time (GLUAUC) compared with the control group” value in series [7] is listed as “significant difference”.

Values taken from patent US20260274910A1, “SINGLE FUSION PROTEIN AND PHARMACEUTICAL COMPOSITION” (MEDI&GENE INC., priority 2023, published 2026).
